In ChEMBL document CHEMBL1154198, “Chemical genetics of Plasmodium falciparum” (Nature, 2010):

Key:
[1] = test system: Plasmodium falciparum; experiment: ST_JUDE: Plasmodium falciparum K1 EC50 (uM) as measured by SYBR green dye; type: functional, organism-based
[2] = test system: Plasmodium falciparum; experiment: ST_JUDE: Plasmodium falciparum 3D7 EC50 (uM) as measured by SYBR green dye; type: functional, organism-based

EC50 [1] [µM] | EC50 [2] [µM] | SMILES
> 15 | > 15 | O=C(Nc1cccc(C(F)(F)F)c1)c1cc2ccccc2oc1=O
> 15 | > 15 | COc1ccc(-c2cc(=O)oc3c(OC)c(OC)ccc23)cc1
3.14 | 3.54 | Cc1cccc(NC(c2ccc(Cl)cc2)c2ccc3cccnc3c2O)n1 (stereo unspecified)
> 15 | > 15 | COc1ccccc1/C=C/CN1CCC(C(Cc2ccccc2)N(C)C(=O)c2cc(C)nn2C)CC1 (stereo unspecified)
2.31 | 1.74 | COc1ccc(C2Sc3ccccc3N=C3C2=C(O)c2ccccc23)cc1 (stereo unspecified)
3.31 | 1.7 | CCN(CC)CCOC(=O)c1ccc(NC(=O)c2cc3cc4cc(OC)ccc4nc3s2)cc1
> 15 | 4.67 | Cc1ccccc1C(=O)N(Cc1cccnc1)c1nc2c(F)cccc2s1
1.76 | 3.01 | CCOc1cc2c(cc1OCC)C(c1cc(Cl)c(O)c(OCC)c1)NCC2 (stereo unspecified)
3.01 | 7.63 | C[n+]1ccccc1/C=C1\Sc2ccccc2N1CCC(=O)O
4.17 | 1.54 | Clc1ccccc1Nc1nc(NCc2ccccc2)c2ccccc2n1
> 15 | 0.35 | CN(C)CCCNCc1ccc2[nH]c3ccccc3c2c1
3.83 | > 15 | CN1CCN(c2ccc(-c3cccc(NC(=O)c4cccc([N+](=O)[O-])c4)c3)nn2)CC1
4.56 | 2.04 | CCOC(=O)C(NC(C)=O)(Nc1ccc(S(=O)(=O)Nc2cc(C)on2)cc1)C(F)(F)F (stereo unspecified)
3.65 | 2.31 | Clc1cccc(/C=N/Nc2[nH]cnc3ncnc2-3)c1
1.92 | 2.95 | CCO/C(O)=C1\C(C)=NC2=C(C(=O)CC(C)(C)C2)C1c1ccc(Cl)cc1Cl (stereo unspecified)
> 15 | > 15 | C[N+]1(CCCCCCCCCCCO)CCCCC1
1.42 | 2.42 | C=CCN1C(=O)c2[nH]nc(-c3c(C)cc(C)cc3O)c2C1c1cccc(OC)c1 (stereo unspecified)

SMILES | EC50 [1] [µM] | EC50 [2] [µM]
NNc1nc(Nc2ccc(F)cc2)nc(N2CCOCC2)n1 | 5.15 | 7.07
